{
  "source": "paper PMC11078990",
  "about": "“Identification and characterization of small molecule inhibitors of the LINE-1 retrotransposon endonuclease” (Nature Communications, 2024)",
  "key": {"[1]": {"target": "L1 EN (LINE-1 retrotransposon endonuclease domain) (Homo sapiens, UniProt O00370, N5T)", "sequence (O00370 1-239 N5T)": "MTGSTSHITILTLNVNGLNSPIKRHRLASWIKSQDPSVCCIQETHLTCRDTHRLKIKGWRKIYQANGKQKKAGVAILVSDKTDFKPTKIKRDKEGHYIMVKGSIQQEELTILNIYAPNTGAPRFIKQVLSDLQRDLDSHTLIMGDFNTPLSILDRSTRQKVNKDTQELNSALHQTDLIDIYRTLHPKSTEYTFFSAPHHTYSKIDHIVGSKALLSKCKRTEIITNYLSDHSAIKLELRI", "test": "Fluorescent oligonucleotide EN nicking activity assay", "format": "biochemical"}, "APE1 [2]": {"target": "T1, APE1 (Homo sapiens, UniProt P27695)", "T1 construct": "purchased New England Biolabs (NEB) M0282S", "test": "APE1 fluorescent oligonucleotide activity assay (abasic site substrate)", "format": "biochemical"}, "[3]": {"system": "substrate oligonucleotide used in the EN activity assay", "format": "binding", "set-up": "key to Binding Detected? (Y/N): Binding Detected? (Y/N); Binding Detected? (Y/N)"}, "EN": {"target": "EN (Homo sapiens, UniProt O00370, N5T)", "sequence (O00370 1-239 N5T)": "as above", "format": "biochemical"}, "L1 retrotransposition": {"system": "L1 retrotransposition", "test": "HeLa dual-luciferase L1 retrotransposition assay", "format": "cell-based, human", "details": "for Luciferase (retrotransposition), replicates: Replicates 1-4"}, "APE1 [4]": {"target": "T1, APE1", "details": "read-out: Ki for APE1; cited from earlier work"}, "[5]": {"system": "senescent LF1 human diploid fibroblasts (IL6, IL1β, CCL2, IFNα, MMP3)", "test": "RT-qPCR of inflammatory markers in replicatively senescent fibroblasts", "format": "cell-based", "details": "10 μM, senescent cells, 3 replicates"}, "[6]": {"system": "senescent LF1 human diploid fibroblasts (IFN-I and Aging gene sets)", "test": "RNA-seq / Gene Set Enrichment Analysis of senescent cultures", "format": "cell-based", "details": "senescent cultures treated 1 month beginning at 3 months senescence"}, "[7]": {"details": "Figure 4a Graph 1, 10 μM, 0 μM average 9.554"}, "[8]": {"details": "Figure 4a Graph 2, 10 μM, 0 μM average 9.679"}, "[9]": {"details": "Figure 4a Graph 3, 10μM, 0μM average 17.91"}, "[10]": {"details": "Figure 4a Graph 4, 10μM, 0μM average 3.426"}, "[11]": {"details": "Figure 4a Graph 5, 10μM, 0μM average 4.537"}},
  "note": "“And” between values parts separate entries of the source, which are not always exact repeats. Identical values can stand only once. “Also recorded” adds a separate entry of the source.",
  "data": [
    {"smiles": "O=C(O)[C@H](CCCCNc1ccc([N+](=O)[O-])cc1[N+](=O)[O-])Nc1ccc([N+](=O)[O-])cc1[N+](=O)[O-]", "note": "[AD2]", "values": [
      {"measurement": "EN activity, percent of no inhibitor control", "setting": "[1]; 2 µM", "value": "97.2065% and 90.9835% and 64.2149%"},
      {"measurement": "EN activity, percent of no inhibitor control", "setting": "[1]; 10 µM", "value": "80.6222% and 62.0824% and 77.8942%"},
      {"measurement": "EN activity, percent of no inhibitor control", "setting": "[1]; 25 µM", "value": "84.9255% and 87.5391% and 75.5295%"},
      {"measurement": "EN activity, percent of no inhibitor control", "setting": "[1]; 50 µM", "value": "66.9257% and 62.5652% and 70.9549%"},
      {"measurement": "EN activity, percent of no inhibitor control", "setting": "[1]; 100 µM", "value": "54.3551% and 40.6401% and 45.1735%"},
      {"measurement": "EN activity, percent of no inhibitor control", "setting": "[1]; 500 µM", "value": "2.482% and 2.582%"},
      {"measurement": "EN activity, percent of no inhibitor control", "setting": "[1]; 1000 µM", "value": "-0.01768% and 1.001% and 0.6109%"},
      {"measurement": "EN activity, percent of no inhibitor control", "setting": "[1]; 2000 µM", "value": "-4.007% and -5.494% and -4.957%"},
      {"measurement": "APE1 activity (%)", "setting": "APE1 [2]", "value": "96.2 ± 3.4", "unit": "%"},
      {"measurement": "APE1 percent activity, Replicate 1", "setting": "APE1 [2]", "value": 98.5607, "unit": "%"},
      {"measurement": "APE1 percent activity, Replicate 2", "setting": "APE1 [2]", "value": 92.3765, "unit": "%"},
      {"measurement": "APE1 percent activity, Replicate 3", "setting": "APE1 [2]", "value": 97.7464, "unit": "%"},
      {"measurement": "APE1 percent activity, average", "setting": "APE1 [2]", "value": 96.2279, "unit": "%"},
      {"measurement": "Effect on APE1 activity", "setting": "APE1 [2]", "value": "inhibited; also recorded: inhibition by the weak APE1 inhibitor AD2 was detected"},
      {"measurement": "Percent APE1 activity, average", "setting": "APE1 [2]", "value": 66.36, "unit": "%"},
      {"measurement": "Percent APE1 activity, replicates", "setting": "APE1 [2]", "value": "67.8305% and 52.9447% and 78.2943%"},
      {"measurement": "Binding Detected? (Y/N)", "setting": "[3]", "value": "N"},
      {"measurement": "Inhibition of EN activity in plasmid nicking assay", "setting": "EN", "value": "full inhibition"},
      {"measurement": "Effect on L1 retrotransposition", "setting": "L1 retrotransposition", "value": "did not significantly impact retrotransposition"},
      {"measurement": "Ki", "setting": "APE1 [4]", "value": 13, "unit": "µM"}
    ]},
    {"smiles": "Nc1ccn([C@@H]2CS[C@H](CO)O2)c(=O)n1", "note": "[3TC, Lamivudine, reference compound]", "values": [
      {"measurement": "Luciferase (retrotransposition), average", "setting": "L1 retrotransposition; [7]", "value": 1.753},
      {"measurement": "Luciferase (retrotransposition), replicates", "setting": "L1 retrotransposition; [7]", "value": "1.525 and 1.282 and 1.336 and 2.868"},
      {"measurement": "Luciferase (retrotransposition), average", "setting": "L1 retrotransposition; [8]", "value": 1.648},
      {"measurement": "Luciferase (retrotransposition), replicates", "setting": "L1 retrotransposition; [8]", "value": "2.547 and 1.556 and 1.337 and 1.153"},
      {"measurement": "Luciferase (retrotransposition), average", "setting": "L1 retrotransposition; [9]", "value": 3.723},
      {"measurement": "Luciferase (retrotransposition), replicates", "setting": "L1 retrotransposition; [9]", "value": "3.272 and 3.5538 and 3.891 and 4.176"},
      {"measurement": "Luciferase (retrotransposition), average", "setting": "L1 retrotransposition; [10]", "value": 0.6208},
      {"measurement": "Luciferase (retrotransposition), replicates", "setting": "L1 retrotransposition; [10]", "value": "0.3413 and 0.6639 and 1.079 and 0.3984"},
      {"measurement": "Luciferase (retrotransposition), average", "setting": "L1 retrotransposition; [11]", "value": 0.4847},
      {"measurement": "Luciferase (retrotransposition), replicates", "setting": "L1 retrotransposition; [11]", "value": "0.5984 and 0.4472 and 0.3986 and 0.4945"},
      {"measurement": "MMP3 RT-qPCR, average (EP = 1)", "setting": "[5]; SEN control 5.499", "value": 1.892},
      {"measurement": "IL1β RT-qPCR, average (EP = 1)", "setting": "[5]; SEN control 8.256", "value": 10.61},
      {"measurement": "CCL2 RT-qPCR, average (EP = 1)", "setting": "[5]; SEN control 8.589", "value": 4.199},
      {"measurement": "IFNα RT-qPCR, average (EP = 1)", "setting": "[5]; SEN control 18.65", "value": 15.66},
      {"measurement": "IL6 RT-qPCR, average (EP = 1)", "setting": "[5]; SEN control 22.45", "value": 13.65},
      {"measurement": "Expression of IFN-I gene set and aging gene set (RNA-seq, GSEA)", "setting": "[6]", "value": "decreased expression"}
    ]}
  ]
}
